{
  "source": "patent US12077555B2",
  "about": "“STAT degraders and uses thereof” (Kymera Therapeutics, Inc., priority 2019, dated 2024)",
  "data": [
    {"biological_target": "STAT3 (Homo sapiens, UniProt P40763)", "sequence (P40763 whole entry)": "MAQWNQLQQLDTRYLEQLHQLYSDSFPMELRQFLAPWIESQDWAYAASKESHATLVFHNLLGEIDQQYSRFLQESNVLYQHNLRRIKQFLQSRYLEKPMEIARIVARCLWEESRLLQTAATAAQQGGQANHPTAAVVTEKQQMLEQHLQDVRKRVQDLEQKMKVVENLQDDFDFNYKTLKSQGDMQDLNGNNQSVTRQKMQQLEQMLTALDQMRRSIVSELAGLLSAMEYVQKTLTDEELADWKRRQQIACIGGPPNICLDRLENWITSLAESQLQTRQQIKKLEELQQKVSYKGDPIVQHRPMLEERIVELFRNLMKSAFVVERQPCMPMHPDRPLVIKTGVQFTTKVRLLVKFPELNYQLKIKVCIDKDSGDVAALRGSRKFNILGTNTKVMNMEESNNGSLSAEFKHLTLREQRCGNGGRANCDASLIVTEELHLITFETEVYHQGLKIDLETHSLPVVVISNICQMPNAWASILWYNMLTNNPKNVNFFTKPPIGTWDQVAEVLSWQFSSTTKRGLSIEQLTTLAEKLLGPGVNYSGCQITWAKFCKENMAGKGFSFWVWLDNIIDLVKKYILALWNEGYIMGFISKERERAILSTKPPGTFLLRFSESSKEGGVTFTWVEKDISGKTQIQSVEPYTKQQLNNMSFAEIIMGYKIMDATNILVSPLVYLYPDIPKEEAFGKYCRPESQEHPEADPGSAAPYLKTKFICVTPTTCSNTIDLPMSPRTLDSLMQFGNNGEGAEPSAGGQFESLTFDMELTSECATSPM", "test": "STAT3 HiBiT degradation assay in transfected A549 cells", "type": "cell-based", "design": "expressed in transfected cells; host or cells: A549", "settings": "A549, 24 h; read-out: STAT3 HiBiT A549 degradation 24 h: Average external-Abs DC50", "procedure": "(§1) Compound preparation and Cell seeding: The transfected A549 cells were harvested from dish into cell culture medium and cell numbers counted. Cells were diluted with culture medium to the desired density and 30 μL of cell suspension (about 2000 cells/well) were added into each well of a 384-well cell culture plate as designated and transferred into 37° C. 5% CO2 incubator for 24 h. Compounds were dissolved to 10 mM stock solution and 12 μL of the stock solution was transferred to a 384 LDV-plate. 3 fold, 10-point dilution was performed by transferring 4 μL compound into 8 μL DMSO using a TECAN (EVO200) liquid handler. 30 μL of diluted compound from compound source plate was transferred into the cell plate as designated by using Echo550 and transferred into 37° C. 5% CO2 incubator for 24 h.\n(§2) Detection: Plates were removed from incubators and equilibrated at room temperature for 15 minutes. Nano-Glo Hibit Lytic Detection reagent (Promega Cat #N3040) was thawed and equilibrated to room temperature before the experiment. 30 μL of Nano-Glo Hibit Lytic Detection reagent was added into each well to be detected. The plates were held at room temperature for 10 min followed by reading on EnSpire.\n(§3) Data analysis: The remaining activity was calculated following the formula: Remaining Activity (%)=100%×(Lumsample−LumNC)/(LumPC−LumNC). Calculate the IC50 by fitting the curve using Xlfit (v5.3.1.3), equation 201: fit=(A+((B−A)/(1+((x/C)^D)))); A: Bottom; B: Top; C: IC50; and D: Slope.\n(§4) The letter codes for STAT3 DC50 include: A (<0.01 μM), B (0.01-0.1 μM), C (0.1-1.0 μM), and D (>1.0 μM).", "units": {"DC50": "µM"}, "values": [
      {"compound": "Cc1ncsc1-c1ccc(CNC(=O)[C@@H]2C[C@@H](O)CN2C(=O)[C@@H](NC(=O)Cc2cccc(-c3ccc(CO[C@H](C)[C@H](CCC(N)=O)NC(=O)[C@@H]4Cc5cccc6c5N4C(=O)[C@@H](NC(=O)c4cc5cc(C(=O)P(=O)(O)O)ccc5[nH]4)CC6)cc3)c2)C(C)(C)C)cc1", "note": "[Compound I-145, 2-[[(2S,11S)-2-[[(3S,4R)-1-carbamoyl-4-[[3'-([[(2S)-1-[(2S,4R)-4-hydroxy-2-([[4-(4-methyl-1,3-thiazol-5-yl)phenyl]methyl]carbamoyl)pyrrolidin-1-yl]-3,3-dimethyl-1-oxobutan-2-yl]carbamoyl]methyl)-[1,1'-biphenyl]-4-yl]methoxy]pentan-3-yl]carbamoyl]-12-oxo-1-azatricyclo[6.4.1.0^[4,13]]trideca-4(13),5,7-trien-11-yl]carbamoyl]-1H-indole-5-carbonylphosphonic acid]", "DC50": "> 1"},
      {"compound": "Cc1ncsc1-c1ccc(CNC(=O)[C@@H]2C[C@@H](O)CN2C(=O)[C@@H](NC(=O)[C@H]2C[C@H](Cc3ccc(CO[C@H](C)[C@H](CCC(N)=O)NC(=O)[C@@H]4Cc5cccc6c5N4C(=O)[C@@H](NC(=O)c4cc5cc(C(=O)P(=O)(O)O)ccc5[nH]4)CC6)cc3)C2)C(C)(C)C)cc1", "note": "[Compound I-146, diammonium 2-[[(2S,11S)-2-[[(3S,4R)-1-carbamoyl-4-[(4-[[(1r,3r)-3-[[(2S)-1-[(2S,4R)-4-hydroxy-2-([[4-(4-methyl-1,3-thiazol-5-yl)phenyl]methyl]carbamoyl)pyrrolidin-1-yl]-3,3-dimethyl-1-oxobutan-2-yl]carbamoyl]cyclobutyl]methyl]phenyl)methoxy]pentan-3-yl]carbamoyl]-12-oxo-1-azatricyclo[6.4.1.0^[4,13]]trideca-4(13),5,7-trien-11-yl]carbamoyl]-1H-indole-5-carbonylphosphonate]", "DC50": "0.1 to 1"},
      {"compound": "Cc1ncsc1-c1ccc(CNC(=O)[C@@H]2C[C@@H](O)CN2C(=O)[C@@H](NC(=O)CCCCCCCC(=O)N2CC[C@H]3CC[C@@H](C(=O)N[C@@H](CCC(N)=O)C(=O)NC(c4ccccc4)c4ccccc4)N3C(=O)[C@@H](NC(=O)c3cc4cc(C(=O)P(=O)(O)O)ccc4[nH]3)C2)C(C)(C)C)cc1", "note": "[Compound I-147]", "DC50": "> 1"},
      {"compound": "Cc1ncsc1-c1ccc([C@H](C)NC(=O)[C@@H]2C[C@H](O)CN2C(=O)[C@@H](NC(=O)CCCCc2ccc(CO[C@H](C)[C@H](CCC(N)=O)NC(=O)[C@@H]3Cc4cccc5c4N3C(=O)[C@@H](NC(=O)c3cc4cc(C(=O)P(=O)(O)O)ccc4[nH]3)CC5)cc2)C(C)(C)C)cc1", "note": "[Compound I-149, diammonium 2-[[(2S,11S)-2-[[(3S,4R)-1-carbamoyl-4-[[4-(4-[[(2S)-1-[(2S,4S)-4-hydroxy-2-[[(1S)-1-[4-(4-methyl-1,3-thiazol-5-yl)phenyl]ethyl]carbamoyl]pyrrolidin-1-yl]-3,3-dimethyl-1-oxobutan-2-yl]carbamoyl]butyl)phenyl]methoxy]pentan-3-yl]carbamoyl]-12-oxo-1-azatricyclo [6.4.1.0^[4,13]]trideca-4(13),5,7-trien-11-yl]carbamoyl]-1H-indole-5-carbonylphosphonate]", "DC50": "> 1"},
      {"compound": "CN1C(=O)CCC(n2c(=O)n(C)c3cc(CCCCCCC(=O)N4CC[C@H]5CC[C@@H](C(=O)N[C@@H](CCC(N)=O)C(=O)NC(c6ccccc6)c6ccccc6)N5C(=O)[C@@H](NC(=O)c5cc6cc(C(=O)P(=O)(O)O)ccc6[nH]5)C4)ccc32)C1=O", "note": "(stereo partly drawn) [Compound I-150, 2-[[(5S,8S,10aR)-8-[[(1S)-3-carbamoyl-1-(diphenylmethylcarbamoyl)propyl]carbamoyl]-3-[7-[3-methyl-1-(1-methyl-2,6-dioxopiperidin-3-yl)-2-oxo-1,3-benzodiazol-5-yl]heptanoyl]-6-oxo-octahydropyrrolo[1,2-a][1,5]diazocin-5-yl]carbamoyl]-1H-indole-5-carbonylphosphonic acid]", "DC50": "> 1"},
      {"compound": "Cc1ncsc1-c1ccc(CNC(=O)[C@@H]2C[C@@H](O)CN2C(=O)[C@@H](NC(=O)NCCCc2ccc(CO[C@H](C)[C@H](CCC(N)=O)NC(=O)[C@@H]3Cc4cccc5c4N3C(=O)[C@@H](NC(=O)c3cc4cc(C(=O)P(=O)(O)O)ccc4[nH]3)CC5)cc2)C(C)(C)C)cc1", "note": "[Compound I-151, 2-[[(2S,11S)-2-[[(3S,4R)-1-carbamoyl-4-([4-[3-([[(2S)-1-[(2S,4R)-4-hydroxy-2-([[4-(4-methyl-1,3-thiazol-5-yl)phenyl]methyl]carbamoyl)pyrrolidin-1-yl]-3,3-dimethyl-1-oxobutan-2-yl]carbamoyl]amino)propyl]phenyl]methoxy)pentan-3-yl]carbamoyl]-12-oxo-1-azatricyclo[6.4.1.0^[4,13]]trideca-4(13),5,7-trien-11-yl]carbamoyl]-1H-indole-5-carbonylphosphonic acid]", "DC50": "0.1 to 1"},
      {"compound": "Cc1ncsc1-c1ccc(CNC(=O)[C@@H]2C[C@@H](O)CN2C(=O)[C@@H](NC(=O)CCCCCc2ccc(OC[C@H](CCC(N)=O)NC(=O)[C@@H]3Cc4cccc5c4N3C(=O)[C@@H](NC(=O)c3cc4cc(C(=O)P(=O)(O)O)ccc4[nH]3)CC5)cc2)C(C)(C)C)cc1", "note": "[Compound I-152, 2-[[(2S,11S)-2-[[(2S)-4-carbamoyl-1-[4-(5-[[(2S)-1-[(2S,4R)-4-hydroxy-2-([[4-(4-methyl-1,3-thiazol-5-yl)phenyl]methyl]carbamoyl)pyrrolidin-1-yl]-3,3-dimethyl-1-oxobutan-2-yl]carbamoyl]pentyl)phenoxy]butan-2-yl]carbamoyl]-12-oxo-1-azatricyclo [6.4.1.0^[4,13]]trideca-4(13),5,7-trien-11-yl]carbamoyl]-1H-indole-5-carbonylphosphonic acid]", "DC50": "> 1"},
      {"compound": "Cc1ncsc1-c1ccc(CNC(=O)[C@@H]2C[C@@H](O)CN2C(=O)[C@@H](NC(=O)CCCCCCCCCOC[C@H](CCC(N)=O)NC(=O)[C@@H]2Cc3cccc4c3N2C(=O)[C@@H](NC(=O)c2cc3cc(C(=O)P(=O)(O)O)ccc3[nH]2)CC4)C(C)(C)C)cc1", "note": "[Compound I-153, 2-[[(2S,11S)-2-[[(2S)-4-carbamoyl-1-[(9-[[(2S)-1-[(2S,4R)-4-hydroxy-2-([[4-(4-methyl-1,3-thiazol-5-yl)phenyl]methyl]carbamoyl)pyrrolidin-1-yl]-3,3-dimethyl-1-oxobutan-2-yl]carbamoyl]nonyl)oxy]butan-2-yl]carbamoyl]-12-oxo-1-azatricyclo[6.4.1.0^[4,13]]trideca-4(13),5,7-trien-11-yl]carbamoyl]-1H-indole-5-carbonylphosphonic acid]", "DC50": "> 1"},
      {"compound": "Cc1ncsc1-c1ccc(CNC(=O)[C@@H]2C[C@@H](O)CN2C(=O)[C@@H](NC(=O)CCCCCCCCOC[C@H](CCC(N)=O)NC(=O)[C@@H]2Cc3cccc4c3N2C(=O)[C@@H](NC(=O)c2cc3cc(C(=O)P(=O)(O)O)ccc3[nH]2)CC4)C(C)(C)C)cc1", "note": "[Compound I-154]", "DC50": "> 1"},
      {"compound": "Cc1ncsc1-c1ccc(CNC(=O)[C@@H]2C[C@@H](O)CN2C(=O)[C@@H](NC(=O)CCCCCCCOC[C@H](CCC(N)=O)NC(=O)[C@@H]2Cc3cccc4c3N2C(=O)[C@@H](NC(=O)c2cc3cc(C(=O)P(=O)(O)O)ccc3[nH]2)CC4)C(C)(C)C)cc1", "note": "[Compound I-155]", "DC50": "> 1"},
      {"compound": "Cn1c(=O)n(C2CCC(=O)NC2=O)c2ccc(CN3CCN(CC(=O)N4CC[C@H]5CC[C@@H](C(=O)N[C@@H](CCC(N)=O)C(=O)NC(c6ccccc6)c6ccccc6)N5C(=O)[C@@H](NC(=O)c5cc6cc(C(=O)P(=O)(O)O)ccc6[nH]5)C4)CC3)cc21", "note": "(stereo partly drawn) [Compound I-157, 2-[[(5S,8S,10aR)-8-[[(1S)-3-carbamoyl-1-(diphenylmethylcarbamoyl)propyl]carbamoyl]-3-[2-(4-[[1-(2,6-dioxopiperidin-3-yl)-3-methyl-2-oxo-1,3-benzodiazol-5-yl]methyl]piperazin-l-yl)acetyl]-6-oxo-octahydropyrrolo[1,2-a][1,5]diazocin-5-yl]carbamoyl]-1H-indole-5-carbonylphosphonic acid]", "DC50": "0.1 to 1"}
    ]},
    {"biological_target": "STAT3 (Homo sapiens, UniProt P40763)", "test": "STAT3 HiBiT degradation assay in transfected A549 cells", "type": "cell-based", "design": "expressed in transfected cells; host or cells: A549", "settings": "read-out: STAT3 HiBiT A549 degradation 24 h: Average external-Abs DC50; A549, 24 h", "procedure": "as §1, §2, §3, §4", "units": {"DC50": "µM"}, "values": [
      {"compound": "Cn1c(=O)n(C2CCC(=O)NC2=O)c2ccc(CCc3ccccc3CCC(=O)N3CC[C@H]4CC[C@@H](C(=O)N[C@@H](CCC(N)=O)C(=O)NC(c5ccccc5)c5ccccc5)N4C(=O)[C@@H](NC(=O)c4cc5cc(C(=O)P(=O)(O)O)ccc5[nH]4)C3)cc21", "note": "(stereo partly drawn) [Compound I-156, diammonium 2-[[(5S,8S,10aR)-8-[[(1S)-3-carbamoyl-1-(diphenylmethylcarbamoyl)propyl]carbamoyl]-3-[3-(2-[2-[1-(2,6-dioxopiperidin-3-yl)-3-methyl-2-oxo-1,3-benzodiazol-5-yl]ethyl]phenyl)propanoyl]-6-oxo-octahydropyrrolo[1,2-a][1,5]diazocin-5-yl]carbamoyl]-1H-indole-5-carbonylphosphonate]", "DC50": "0.1 to 1"}
    ]}
  ]
}
